Publication PMC8146789, “20-Hydroxyecdysone, from Plant Extracts to Clinical Use: Therapeutic Potential for the Treatment of Neuromuscular, Cardio-Metabolic and Respiratory Diseases” (Biomedicines, 2021)
Like-named read-outs stand apart in the source and are kept apart here.

Tests used:
[1] = repeated dose toxicity study (26-week); settings: rat, in vivo; rats, 26-week repeated dose; Biophytis, unpublished data; read-out: No Observed Adverse Effect Level (NOAEL)
Text: More recently, a purified to pharmaceutical grade 20E (≥97% 20E purity) was used as a drug candidate in preclinical regulatory studies including safety pharmacology, genotoxicity and repeated toxicology in rodents (rats) and non-rodents (dog).

C2C12 cells = tested on: C2C12 cells; set-up: method as in ref [103] = [103]; 103. Dilda P. Foucault A.S. Serova M. On S. Raynal S. Veillet S. Dioh W. Lafont R. BIO101, a drug candidate targeting Mas receptor for the treatment of age-reated muscle degeneration. From molecular t; settings: C2C12 myotubes, ref [103], cited from earlier work
C2C12 myotubes = tested on: C2C12 myotubes; set-up: method as in PMID 24974955; settings: 20E 1 μM; ref [54]; cited from earlier work
ERα [2] = tested on: ERα; set-up: method as in PMID 24974955; settings: ref [54]; cited from earlier work
ERα [3] = tested on: ERα; set-up: method as in PMID 18220764; settings: cited from earlier work
Erβ = tested on: Erβ; set-up: method as in PMID 18220764; settings: cited from earlier work
[4] = tested on: epididymal adipose tissue; set-up: method as in PMID 21869758; settings: mice, high-fat diet, 20E 50 mg/kg/day; ref [59]; cited from earlier work
[5] = set-up: method as in PMID 31190566; settings: high fructose fed gerbils; ref [61]; cited from earlier work
rats = tested on: rats; set-up: method as in ref [121] = [121]; 121. Ogawa S. Nishimoto N. Matsuda H. Pharmacology of ecdysones un vertebrates Invertebrate Endocrinology and Hormonal Heterophylly Burdette W.J. Springer Berlin, Germany 1974 341 344; settings: ref [121]; cited from earlier work
ovariectomized rats = tested on: ovariectomized rats; set-up: method as in Seidlova-Wuttke et al. [57],[94]; settings: up to 500 mg/kg daily for 3 months, ref Seidlova-Wuttke et al. [57],[94]; cited from earlier work
[6] = set-up: method as in doi:10.1016/0924-977X(96)83007-0; settings: 7.5–10 mg/day, 1 month; ref [165]; cited from earlier work
Hymenolepiasis = tested on: Hymenolepiasis; set-up: method as in PMID 22536744; settings: 5 mg 3×/day, 2 weeks; ref [169]; cited from earlier work
[7] = set-up: method as in ref [174] = [174]; 174. Thole S.W. The Metabolic Syndrome: The Effects of β-ecdysone on Selected Body Parameters and Serum Lipids on the Metabolic Syndrome Ph.D. Thesis University of Göttingen Göttingen, Germany 2018; settings: ref [174], cited from earlier work
[8] = set-up: method as in ref [177] = [177]; 177. Dustmukhamedova D.K.H. Kamilovz A.T. The characteristic of energy metabolism disorders and its correction in children with celiac disease Am. J. Med. Medic. Sci. 2020 10 780 783; settings: children 3–14, 2.5 mg/kg/day, 14 days; ref [177]; cited from earlier work
[9] = set-up: method as in doi:10.1055/s-0032-1320426; settings: ovariectomized rats, p < 0.05; ref [171],[172]; cited from earlier work
mice = settings: ref Ogawa et al. [121], cited from earlier work
[10] = in vivo; cited from earlier work
[11] = patients with metabolic syndrome

CC(C)(O)CC[C@@H](O)[C@](C)(O)[C@H]1CC[C@@]2(O)C3=CC(=O)[C@@H]4C[C@@H](O)[C@@H](O)C[C@]4(C)[C@H]3CC[C@]12C [20E, 2β,3β,14α,20R,22R,25-hexahydroxy-5β-cholest-7-en-6-one]
NOAEL at 26 week [1]: 1000 mg/kg
optimal concentration for anabolic effect on protein synthesis (C2C12 cells; 0.01–10 μM tested): 1 µM
protein synthesis stimulatory activity (C2C12 cells; 20E 0.01–10 μM, IGF-1 100 ng/mL): equally active as insulin-like growth factor-1 (IGF-1)
myotube diameter (C2C12 myotubes): enhanced myotube diameter
activation of ERE reporter gene (ERα [2]): could be activated dose dependently
binding to nuclear receptor (ERα [3]): negative
binding to nuclear receptor (Erβ): negative
adipocyte diameter [4]: retains the median adipocyte diameter close to that in mice fed a low-fat diet
mass of epididymal fat pads [4]: counteracts both the increase in the mass of the fat pads
effect on adiposity [5]: efficient
sex hormonal activity, anti-inflammatory or anabolic effects (rats): did not have
detrimental effects (ovariectomized rats): no stated detrimental effects
patients with improvement of libido and sexual activity [6]: Improvement of libido and sexual activity in 75% of patients
parasitological efficacy (Hymenolepiasis): 36.4%
symptoms (Hymenolepiasis): Reduction in symptoms
output of metabolic syndrome study ([7]; 40 or 90 mg/day, 3–6–9 months): Reductions in body mass, proportion of body fat, waist cicumference and hsCRP, retention of muscle mass
body parameters versus control group [7, 11]: continuous and significant loss of body mass, fat percentage, and waist diameter
effect on serum lipids [7, 11]: no significant effect on serum lipids
hsCRP level [7, 11]: marked reduction
output of celiac disease study [8]: Reduction in symptoms Improvement of energy metabolism
abdominal, bone marrow and joint fat [9]: reduced the amount of abdominal, bone marrow and joint fat
LD50 (mice; i.p.-injected): 6.4 g/kg
LD50 (mice; ingested): > 9 g/kg
time of plasma titre maximum [10]: ca. 30 min
